Laboratory results taken from publication PMC8159961, “Exploring protein hotspots by optimized fragment pharmacophores” (Nature Communications, 2021).

Key:
human 5-HT1A receptor = target: T1, human 5-HT1A receptor (Homo sapiens, UniProt P08908); test: GPCR radioligand binding assay, [3H]-8-OH-DPAT displacement, HEK293 membranes; conditions: for %inh 5-HT1A average: average of exp_1 and exp_2; for %inh 5-HT1A corrected*: average, values below 0 and above 100% were set as 0 and 100; for %inh 5-HT1A exp_1: replicate exp_1; for %inh 5-HT1A exp_2: replicate exp_2; for 5-HT1A % Inhibition by plate position: 10 µM
T1 construct: expressed in transfected cells
T1 sequence (P08908 1-422): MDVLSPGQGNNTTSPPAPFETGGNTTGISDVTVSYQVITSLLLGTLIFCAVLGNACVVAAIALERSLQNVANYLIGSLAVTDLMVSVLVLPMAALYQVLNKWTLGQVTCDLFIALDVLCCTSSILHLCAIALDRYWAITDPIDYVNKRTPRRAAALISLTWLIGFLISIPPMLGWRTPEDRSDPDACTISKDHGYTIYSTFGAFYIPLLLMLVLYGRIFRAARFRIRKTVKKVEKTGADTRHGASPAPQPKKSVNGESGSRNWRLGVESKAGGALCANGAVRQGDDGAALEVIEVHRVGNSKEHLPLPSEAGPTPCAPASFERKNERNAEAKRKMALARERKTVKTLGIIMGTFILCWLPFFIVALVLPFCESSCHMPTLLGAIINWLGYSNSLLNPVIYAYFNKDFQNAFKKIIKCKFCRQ

human 5-HT6 receptor = target: T2, human 5-HT6 receptor (Homo sapiens, UniProt P50406); test: GPCR radioligand binding assay, [3H]-LSD displacement, HEK293 membranes; conditions: for 5-HT6 % Inhibition by plate position: 10 µM; for %inh 5-HT6 average: average of exp_1 and exp_2; for %inh 5-HT6 corrected*: average, values below 0 and above 100% were set as 0 and 100; for %inh 5-HT6 exp_1: replicate exp_1; for %inh 5-HT6 exp_2: replicate exp_2
T2 construct: expressed in transfected cells
T2 sequence (P50406 whole entry): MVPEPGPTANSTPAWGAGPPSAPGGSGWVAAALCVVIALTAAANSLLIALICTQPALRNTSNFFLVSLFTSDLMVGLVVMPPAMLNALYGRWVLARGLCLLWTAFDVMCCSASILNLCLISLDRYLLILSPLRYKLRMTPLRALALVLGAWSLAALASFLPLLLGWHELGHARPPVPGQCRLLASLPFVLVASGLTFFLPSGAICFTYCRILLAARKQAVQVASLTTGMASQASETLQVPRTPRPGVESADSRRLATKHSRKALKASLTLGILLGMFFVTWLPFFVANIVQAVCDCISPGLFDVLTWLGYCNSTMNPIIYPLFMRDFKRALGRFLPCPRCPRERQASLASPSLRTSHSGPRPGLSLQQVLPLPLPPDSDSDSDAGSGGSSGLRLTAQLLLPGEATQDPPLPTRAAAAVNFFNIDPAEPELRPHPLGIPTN

human 5-HT7b receptor = target: T3, human 5-HT7b receptor (Homo sapiens, UniProt P34969); test: GPCR radioligand binding assay, [3H]-5-CT displacement, HEK293 membranes; conditions: for 5-HT7 % Inhibition by plate position: 10 µM; for %inh 5-HT7 exp_1: replicate exp_1; for %inh 5-HT7 exp_2: replicate exp_2; for %inh 5-HT7 average: average of exp_1 and exp_2
T3 construct: expressed in transfected cells
T3 sequence (P34969 1-432): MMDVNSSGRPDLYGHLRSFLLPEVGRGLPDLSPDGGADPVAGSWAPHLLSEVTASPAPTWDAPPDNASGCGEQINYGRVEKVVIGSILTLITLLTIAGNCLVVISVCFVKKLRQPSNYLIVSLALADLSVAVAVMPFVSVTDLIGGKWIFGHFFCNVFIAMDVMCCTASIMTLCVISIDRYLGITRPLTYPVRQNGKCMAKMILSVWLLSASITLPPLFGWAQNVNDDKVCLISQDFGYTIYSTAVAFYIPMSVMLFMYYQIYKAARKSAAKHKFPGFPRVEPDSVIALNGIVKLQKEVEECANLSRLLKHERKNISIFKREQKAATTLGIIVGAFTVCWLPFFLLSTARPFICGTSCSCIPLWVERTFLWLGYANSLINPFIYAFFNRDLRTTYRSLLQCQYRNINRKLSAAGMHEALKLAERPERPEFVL

Row | SMILES | %inh 5-HT1A average (human 5-HT1A receptor) [%] | %inh 5-HT1A corrected* (human 5-HT1A receptor) [%] | %inh 5-HT1A exp_1 (human 5-HT1A receptor) [%] | %inh 5-HT1A exp_2 (human 5-HT1A receptor) [%] | 5-HT6 % Inhibition by plate position (human 5-HT6 receptor) [%] | %inh 5-HT6 average (human 5-HT6 receptor) [%] | %inh 5-HT6 corrected* (human 5-HT6 receptor) [%] | %inh 5-HT6 exp_1 (human 5-HT6 receptor) [%] | %inh 5-HT6 exp_2 (human 5-HT6 receptor) [%] | 5-HT7 % Inhibition by plate position (human 5-HT7b receptor) [%] | %inh 5-HT7 exp_1 (human 5-HT7b receptor) [%] | %inh 5-HT7 exp_2 (human 5-HT7b receptor) [%] | 5-HT1A % Inhibition by plate position (human 5-HT1A receptor) [%] | %inh 5-HT7 average (human 5-HT7b receptor) [%]
1 | Oc1cnc(-c2ccccc2)nc1 [F11] | 6.48 | 6.48 | 14 | -1.43 | 41 | 41 | 41 | 42 | 39 | 0.572 | -8 | 9 |  | 
2 | Cc1cc(C)c2c(=O)[nH]n(C)c2n1 [F12] | 5.64 | 5.64 | 4.73 | 6.55 | 34 | 34 | 34 | 35 | 32 | 11 | 14 | 7 |  | 
3 | COc1ccc(C2=CCNCC2)cc1 [G1] | 17 | 17 | 14 | 20 | 49 | 49 | 49 | 49 | 49 | 19 | 17 | 20 |  | 
4 | Cn1c(CO)nc2ccccc21 [G2] | -5 |  | 12 | -22 | 37 | 37 | 37 | 37 | 38 | 5 | 10 | 0.167 | 0 | 
5 | CN(C)c1cc(CN)ccn1 [G3] | 11 | 11 | 13 | 10 | 16 | 16 | 16 | 16 | 16 | 0 | -1.11 | -35 |  | -18
6 | O=C(NC1CC1)c1ccccc1O [G4] | 1.71 | 1.71 | 3.42 | 0 | 24 | 24 | 24 | 28 | 20 | 0 | 1.81 | -25 |  | -12
7 | c1ccc2sc(N3CCNCC3)nc2c1 [G5] | 83 | 83 | 78 | 88 | 42 | 42 | 42 | 49 | 35 | 28 | 32 | 25 |  | 
8 | O=C(O)C1CCCN(C(=O)N2CCCC2)C1 (stereo not shown) [G6] | 5 | 5 | 1 | 9 | 27 | 27 | 27 | 29 | 25 | 8.53 | 10 | 7 |  | 
9 | O=C1CCN(c2ccncc2)CC1 [G7] | 0.831 | 0.831 | -1.88 | 3.54 | 7 | 7 | 7 | 7.61 | 7 | 3.28 | -1.58 | 8 |  | 
10 | O=C1CCN(c2ccccn2)CC1 [G8] | -7 |  | 4 | -18 | 7 | 7 | 7 | 0 | 15 | 29 | 34 | 24 | 0 | 
11 | Nc1ccc(-c2ccccc2)cc1C(=O)O [G9] | 15 | 15 | 13 | 18 | 37 | 37 | 37 | 34 | 40 | 15 | 16 | 14 |  | 
12 | O=C(CN1CCCC1)c1ccccc1Cl [G10] | 78 | 78 | 77 | 79 | 19 | 19 | 19 | 17 | 20 | 3.47 | 8 | -1 |  | 
13 | CCc1nccn1CC(=O)O [G11] | 8.43 | 8.43 | 3.26 | 14 | 0 | -2 | 0 | -9 | 5 | 0 | -14 | 8 |  | -3.32
14 | O=C(O)c1ccc(CN2CCOCC2)cc1 [H1] | 5 | 5 | 11 | -0.56 | 44 | 44 | 44 | 48 | 41 | 17 | 11 | 23 |  | 
15 | O=C(O)CC1CCC(=O)N1 (stereo not shown) [H2] | -0.447 |  | -9 | 8.47 | 16 | 16 | 16 | 18 | 15 | 7 | 4.76 | 9 | 0 | 
16 | FC1(F)CNCC(F)(F)O1 [H3] | -7 |  | 9 | -23 | 36 | 36 | 36 | 40 | 31 | 0 | -4 | -10 | 0 | -7
17 | Fc1ccc2c(C3CCNCC3)c[nH]c2c1 [H4] | 81 | 81 | 87 | 75 | 90 | 90 | 90 | 81 | 98 | 78 | 78 | 78 |  | 
18 | Oc1ccc(-n2cncn2)cc1 [H5] | -1.29 |  | -9 | 6 | 36 | 36 | 36 | 39 | 32 | 25 | 29 | 21 | 0 | 
19 | Cn1nc(C(F)(F)F)cc1O [H6] | 21 | 21 | 21 | 21 | 0 | -24 | 0 | -16 | -31 | 9 | 4 | 14 |  | 
